Test results from patent publication US20150174158A1, “[…] NITRIC OXIDE FOR TREATING RESPIRATORY DISEASES” (Advanced Inhalation Therapies (AIT) Ltd., priority 2012, published 2015).
Like-named read-outs stand apart in the source and are kept apart here.

How the values were obtained:
Klebsiella sp. #2 = settings: 200 ppm gNO; saline; cited from earlier work
Mycobacterium = settings: 200 ppm gNO; saline; cited from earlier work
Group B Streptococci = settings: 200 ppm gNO; saline; cited from earlier work
[1] = cited from earlier work
methemoglobin (MetHb) = settings: healthy humans, cited from earlier work
[2] = Phase I open label safety study of intermittent 160 ppm gNO inhalation: adverse events, vital signs, oxygenation, NO2; assay type: in vivo, human
Source text: 10 healthy adult volunteer subjects (5 males, 5 females), aged 20 to 62 years, were enrolled in the study after screening their medical history, a physical examination, pulmonary function tests and blood values. Exclusion criteria included individuals less than 19 years of age, pregnant females and unwilling to practice birth control during the study, diagnosed with pulmonary disease, epistaxis, hemoptysis, methemoglobinemia, organ transplant recipient or receiving antibiotic therapy.
After obtaining informed consent, treatment was initiated within 5 days of enrollment. Subjects were housed in a hospital ward and received 160 ppm gNO for 30 minutes every four hours (Q4h), five times a day, for five consecutive days by inhalation. Subjects returned for follow-up evaluations 3, 7 and 21 days after the final gNO administration. Subject safety was determined by monitoring vital signs, methemoglobin levels, lung function, blood chemistry, hematology, prothrombin time, inflammatory cytokine/chemokines levels and endothelial activation. These parameters were compared to baseline and at various time-points during and after gNO administration.
Subjects were administered gNO through a modified disposable mouthpiece to maximize mixing. Inspiration was spontaneously initiated by the subject from a conventional intermittent positive pressure breathing respirator (Mark-7, Carefusion, USA) in fixed flow mode delivering 48 liters per minute (LPM). Flows of gas were verified with a calibrated mass flow meter (TSI, USA). Gaseous nitric oxide (gNO, obtained at INOmax, Ikaria, USA) at a concentration of 800 ppm delivered at a flow of 12 LPM was titrated into a distal delivery port on the mouth piece connected to the respirator during inspiratory phase only (pressure switch). The Mark 7 respirator was supplied by an air/oxygen blender (Bird Sentry, Carefusion, USA) set to deliver 26% oxygen.
The levels of gNO, NO2, O2 and methemoglobin were monitored during the administration of gNO. […] Inspiratory NO, NO2 and O2 levels were continuously monitored by sampling from the mouthpiece sample port located about 6 millimeters from the mouth of the subject with an AeroNOx (Pulmonox, AB, Canada) NO, NO2 and O2 electrochemical analyzer. Delivery safety was determined by the number of occasions that NO2 exceeded 5 ppm, gNO exceeding 10% variation and O2 dropping below 20% during gNO administration. […]
General medical examinations were performed by a pulmonary physician on screening and on days 8, 12 and 26 to obtain oxygenation and vital sign measurements. […] Oxygenation was measured with a pulse oximeter (Rad 57, Masimo Corporation, USA) which was used according to manufacturer's guidelines to measure functional oxygen saturation of arterial hemoglobin (SpO2) and heart rate. These parameters were measured continuously during every gNO administration and for 3.5 hours after the first treatment of the day. Cardiovascular status was determined by monitoring heart rate, blood pressure, respiratory rate and temperature. Values were recorded prior to the start of each gNO administration, following a 5 minute rest. During treatments, vital signs (except temperature) were also performed 15 minutes after the start of the treatment and at the end of gNO administration and recorded. After the first treatment each day, vital signs were recorded at every 30 minutes until the start of the second gNO administration of the day.

[3] = system: chronic, non-healing wound; settings: topical 200 ppm gNO, within the first three days; cited from earlier work
Serracia sp. = settings: 200 ppm gNO; saline; cited from earlier work
[4] = system: TNF, IL-6, IL-8, IL-10, IL-1b and IL-12p70; assay: Phase I safety study: plasma cytokines by cytometric bead array; assay type: in vivo, human; settings: vs baseline, all sampling time points
Source text: Hematological assessment included a complete blood count and differentials (hemoglobin, hematocrit, red blood cell count, white blood cell count, white blood cell differential, and platelet count) were obtained in order to monitor blood chemistry, hematology and inflammation measurements. The blood chemistry profile included serum creatinine, and liver function tests such as aspartate aminotransferase (AST) serum glutamic oxaloacetic transaminase (SGOT), alkaline phosphatase, and gamma-glutamyl transferase (GGT). The effect of gNO on coagulation was determined by the prothrombin time (PT) and its derived measures of prothrombin ratio (PR) and international normalized ratio (INR). Heparinized plasma was collected at baseline and on days 1, 2, 4, and 5 of gNO administration, and on follow-up days 3, 7 and 21 and frozen at −80° C. Plasma cytokine levels were assessed using the human inflammation cytokine bead array kit (BD Bioscience, Canada). Plasma levels of angiopoietin Ang-1 and Ang-2 were determined by ELISA (R&D Systems, USA).
To assess whether gNO inhalation may cause inflammation or endothelial activation cytokines and the vascular endothelium activation factors Ang-1 and Ang-2 were quantified in peripheral plasma at baseline at various time points thereafter. […]

## [N]=O [gNO, nitric oxide]
Klebsiella sp. #2
  LD100: 5 h
  Latent Period: 2 h
  −2.5 Log10: 4.1 hours
Mycobacterium
  LD100: 10 h
  Latent Period: 7 h
  −2.5 Log10: 9.2 hours
Group B Streptococci
  LD100: 2 h
  Latent Period: 1 h
  −2.5 Log10: 1.5 hours
[1]; in vivo
  radius of action from site of origin: approximately 200 microns
[1]; predominant metabolite
  nitrate excreted in the urine, share of nitric oxide dose inhaled: more than 70%
Methemoglobin (MetHb); gNO 128 ppm for 3 hours
  MetHb level: > 5%
Methemoglobin (MetHb); gNO 512 ppm for 55 minutes
  MetHb level: > 5%
[2]; 160 ppm gNO 30 min, 5 times a day, 5 days, 10 healthy adults
  minor adverse events: Three minor adverse events were reported
[2]; 160 ppm gNO 30 min, 5 times a day, 5 days, 10 healthy adults, 250 administrations
  significant adverse events: no significant adverse events were observed
[2]; during and after gNO administration, 160 ppm
  vital signs: remained within normal limits
[2]; during or after 160 ppm gNO administration
  lowest observed SpO2: 93%
[2]; inspired gas at mouthpiece, 160 ppm gNO, 95% confidence level 2.17-2.47
  mean NO2 level during the treatments: 2.32 ppm
[3]
  biofilm presence: no longer visibly present
Serracia sp.
  LD100: 6 h
  Latent Period: 4 h
  −2.5 Log10: 4.9 hours
[4]
  plasma cytokine levels: unaffected
